Data reported in ChEMBL document CHEMBL3808377, “Core Replacements in a Potent Series of VEGFR-2 Inhibitors and Their Impact on Potency, Solubility, and hERG” (ACS Med Chem Lett, 2016).
Values after ≈ are worked out from the molar mass of the structure shown.

How the values were obtained:
[1] = biological target: Voltage-gated inwardly rectifying potassium channel KCNH2 (Homo sapiens, UniProt Q12809); assay: Binding affinity to human ERG by radioligand binding assay
[2] = Aqueous solubility of the compound at pH 6.8; assay type: physicochemical

Sequence of Voltage-gated inwardly rectifying potassium channel KCNH2 (Q12809 whole entry): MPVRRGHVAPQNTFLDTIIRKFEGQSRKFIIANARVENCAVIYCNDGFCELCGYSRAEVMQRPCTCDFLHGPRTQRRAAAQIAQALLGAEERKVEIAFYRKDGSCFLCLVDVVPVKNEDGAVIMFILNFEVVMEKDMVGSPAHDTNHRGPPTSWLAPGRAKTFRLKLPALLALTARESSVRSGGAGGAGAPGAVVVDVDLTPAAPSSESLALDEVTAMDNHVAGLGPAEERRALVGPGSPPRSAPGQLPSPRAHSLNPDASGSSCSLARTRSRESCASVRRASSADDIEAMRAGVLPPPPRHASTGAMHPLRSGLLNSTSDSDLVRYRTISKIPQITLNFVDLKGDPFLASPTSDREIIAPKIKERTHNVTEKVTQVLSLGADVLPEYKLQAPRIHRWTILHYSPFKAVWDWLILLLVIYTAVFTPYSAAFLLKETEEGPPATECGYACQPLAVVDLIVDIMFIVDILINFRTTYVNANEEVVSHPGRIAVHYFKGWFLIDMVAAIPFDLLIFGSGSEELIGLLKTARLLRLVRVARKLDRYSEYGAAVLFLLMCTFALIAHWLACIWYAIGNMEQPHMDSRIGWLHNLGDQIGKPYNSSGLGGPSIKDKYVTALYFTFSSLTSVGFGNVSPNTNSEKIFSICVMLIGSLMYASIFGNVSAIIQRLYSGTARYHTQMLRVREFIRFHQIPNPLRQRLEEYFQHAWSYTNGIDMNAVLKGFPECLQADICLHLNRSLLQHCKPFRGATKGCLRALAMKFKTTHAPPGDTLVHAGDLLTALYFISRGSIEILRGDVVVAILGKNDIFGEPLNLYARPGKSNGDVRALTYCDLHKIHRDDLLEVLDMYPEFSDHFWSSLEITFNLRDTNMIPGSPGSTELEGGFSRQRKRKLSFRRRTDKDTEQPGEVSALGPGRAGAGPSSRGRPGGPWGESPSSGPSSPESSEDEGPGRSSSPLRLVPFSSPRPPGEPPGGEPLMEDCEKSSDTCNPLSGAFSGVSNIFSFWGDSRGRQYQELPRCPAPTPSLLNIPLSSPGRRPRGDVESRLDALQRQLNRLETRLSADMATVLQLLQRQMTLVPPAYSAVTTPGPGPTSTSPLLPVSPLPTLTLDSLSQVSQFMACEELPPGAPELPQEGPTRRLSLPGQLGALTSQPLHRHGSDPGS

SMILES	solubility [2] [µM]	IC50 [1] [µM]
CC(C)(C)c1cc(NC(=O)c2cnc3cc(Oc4ncnc5c4CNC5)ccn23)no1	456 (≈ 191 µg/mL)	9.2
CC(C)(C)c1cc(NC(=O)n2ccc3nc(Oc4ncnc5c4CNC5)ccc32)no1	260 (≈ 109 µg/mL)	26
C[C@H]1Cc2c(ncnc2Oc2ccc3c(ccn3C(=O)Nc3cc(C4(C(F)(F)F)CC4)on3)c2)CN1	34 (≈ 16.9 µg/mL)	7.4
CC1(c2cc(NC(=O)c3ccn4cc(Oc5ncnc6c5CNC6)ccc34)n[nH]2)CC1	280 (≈ 116 µg/mL)	–
C[C@H]1Cc2c(ncnc2Oc2ccc3ccn(C(=O)Nc4cc(C5(C(F)(F)F)CC5)on4)c3c2)CN1	3 (≈ 1.5 µg/mL)	8.6
CC(C)(C)c1cc(NC(=O)n2ncc3cc(Oc4ncnc5c4CNC5)ccc32)no1	9 (≈ 3.78 µg/mL)	7.7

Continued, in another order:

solubility [2] [µM]	SMILES	IC50 [1] [µM]
81 (≈ 33.9 µg/mL)	CC(C)(C)c1cc(NC(=O)n2ccc3ccc(Oc4ncnc5c4CNC5)cc32)no1	21
240 (≈ 101 µg/mL)	CC(C)(C)c1cc(NC(=O)n2ccc3ncc(Oc4ncnc5c4CNC5)cc32)no1	> 30
25 (≈ 10.5 µg/mL)	CC(C)(C)c1cc(NC(=O)n2ccc3cc(Oc4ncnc5c4CNC5)cnc32)no1	5.7
